Assay results from patent publication US12617783B2, “Heterocyclic GLP-1R agonists” (BIOMEA FUSION, INC., priority 2024, dated 2026).

molecular target: T1, human GLP-1R (Homo sapiens, UniProt P43220); experiment: GLP-1R cAMP assay (Example B1a, HTRF, 30 min at room temperature); format: cell-based; conditions: Table 1c, comparative compound; read-out: EC50
T1 construct: host or cells: HEK293
Procedure: Assay was carried out with HEK293 expressing human GLP-1R using HTRF assay, developed by Wuxi Apptec. The method is a competitive assay between native cAMP produced by the cells and exogenous cAMP labeled with a proprietary dye d2. The tracer binding is visualized by a mAb anti-cAMP labeled with Cryptate. The signal (i.e. energy transfer) is inversely proportional to the concentration of CAMP in either standard or experimental sample. Compounds were tested in the absence of BETP. Ten microliter of cell suspension in assay buffer (5 mM HEPES, 500 μM IBMX, 0.1% BSA) were added to each well (1,000 cells per well) in a low volume 384-well plate for the assay. Serially diluted compounds were added in 100 nL volume to duplicate wells, by Labcyte Echo. GLP-1 (7-37) was used as positive control. Assay plate was incubated for 30 minutes at room temperature. Stock of cAMP Detection Solution was prepared by mixing 38 parts of cAMP lysis buffer, 1 part of cAMP-D2, 1 part of anti-cAMP cryptate reagent (Cisbio #62AM4PEJ). Ten microliter of the cAMP Detection Solution was added to each well, and the assay plate was incubated for 1 hour at room temperature in the dark. Plates were read on Envision plate reader. The data were analyzed by ScreenUltra in Dotmatics, with % activation expressed using following formula: (Well data−negative control)/(postive control−negative control)*100. Dose response curves were plotted and EC50 values calculated by non-linear regression using 4-parameter fit.

T1 sequence (P43220 24-463): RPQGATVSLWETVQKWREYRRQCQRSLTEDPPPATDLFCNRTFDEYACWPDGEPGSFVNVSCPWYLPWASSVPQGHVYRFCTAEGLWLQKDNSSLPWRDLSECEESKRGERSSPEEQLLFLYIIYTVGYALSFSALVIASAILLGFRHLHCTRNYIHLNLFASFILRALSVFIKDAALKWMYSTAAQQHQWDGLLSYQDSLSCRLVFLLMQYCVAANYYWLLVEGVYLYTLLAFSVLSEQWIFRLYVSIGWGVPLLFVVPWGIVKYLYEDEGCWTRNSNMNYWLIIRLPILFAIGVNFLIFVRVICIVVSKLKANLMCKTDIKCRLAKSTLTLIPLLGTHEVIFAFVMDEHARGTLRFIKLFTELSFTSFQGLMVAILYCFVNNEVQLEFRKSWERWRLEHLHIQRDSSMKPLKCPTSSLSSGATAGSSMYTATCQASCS

| SMILES | EC50 |
| --- | --- |
| CCP(=O)(CC)c1ccc(-n2ccn(-c3c4c(nn3-c3cc(C)c(F)c(C)c3)CCN(C(=O)c3cc5cc(C6CCOCC6)ccc5n3[C@@]3(c5noc(=O)[nH]5)C[C@@H]3C)[C@H]4C)c2=O)cc1NC [Compound 405] | 11.4 nM |

same assay, conditions: cAMP accumulation in HEK293 expressing human GLP-1R, no BETP, 30 min room temperature (Method B1a, compounds ID 1-609), Table 1; read-out: EC50

| SMILES | EC50 |
| --- | --- |
| Cc1cc(-n2nc3c(c2-n2ccn(-c4ccc5c(cnn5C)c4)c2=O)[C@@H]2CC[C@H](C3)N2C(=O)c2cc3cc([C@H]4CCOC(C)(C)C4)ccc3n2[C@@]2(c3noc(=O)[nH]3)C[C@@H]2C)cc(C)c1F [Compound 302, 3-((1S,2S)-1-(5-((S)-2,2-dimethyltetrahydro-2H-pyran-4-yl)-2-((4S,7R)-2-(4-fluoro-3,5-dimethylphenyl)-3-(3-(1-methyl-1H-indazol-5-yl)-2-oxo-2,3-dihydro-1H-imidazol-1-yl)-2,4,5,6,7,8-hexahydro-4,7-epiminocyclohepta [c]pyrazole-9-carbonyl)-1H-indol-1-yl)-2-methylcyclopropyl)-1,2,4-oxadiazol-5 (4H)-one] | 52.9 nM |
| Cc1cc(-n2nc3c(c2-n2ccn(-c4ccc5c(cnn5C)c4F)c2=O)CN(C(=O)c2cc4cc([C@H]5CCOC(C)(C)C5)ccc4n2[C@@]2(c4noc(=O)[nH]4)C[C@@H]2C)CCC3)cc(C)c1F [Compound 416, 3-((1S,2S)-1-(5-((S)-2,2-dimethyltetrahydro-2H-pyran-4-yl)-2-(3-(3-(4-fluoro-1-methyl-1H-indazol-5-yl)-2-oxo-2,3-dihydro-1H-imidazol-1-yl)-2-(4-fluoro-3,5-dimethylphenyl)-2,4,5,6,7,8-hexahydropyrazolo[4,3-c]azepine-5-carbonyl)-1H-indol-1-yl)-2-methylcyclopropyl)-1,2,4-oxadiazol-5(4H)-one] | 162 nM |
| Cc1cc(-n2nc3c(c2-n2ccn(-c4ccc5ccncc5c4F)c2=O)[C@@H]2CCC[C@H](C3)N2S(=O)(=O)c2cc3cc([C@H]4CCOC(C)(C)C4)ccc3n2[C@]2(c3noc(=O)[nH]3)C[C@@H]2C)cc(C)c1F [Compound 605, 3-[(1R,2S)-1-[5-[(4S)-2,2-dimethyltetrahydropyran-4-yl]-2-[[(1S,8R)-4-(4-fluoro-3,5-dimethyl-phenyl)-3-[3-(8-fluoro-7-isoquinolyl)-2-oxo-imidazol-1-yl]-4,5,12-triazatricyclo[6.3.1.02,6]dodeca-2,5-dien-12-yl]sulfonyl]indol-1-yl]-2-methyl-cyclopropyl]-4H-1,2,4-oxadiazol-5-one] | ≥ 10000 nM |
| Cc1cc(-n2nc3c(c2-c2ncn(-c4ccc5c(cnn5C)c4F)c2C)[C@H](C)N(C(=O)c2cc4cc(C5CCC(F)(F)CC5)ccc4n2C2(c4noc(=O)[nH]4)CC2)CC3)cc(C)c1F [Compound 106, 3-[1-[5-(4,4-difluorocyclohexyl)-2-[(4S)-2-(4-fluoro-3,5-dimethyl-phenyl)-3-[1-(4-fluoro-1-methyl-indazol-5-yl)-5-methyl-imidazol-4-yl]-4-methyl-6,7-dihydro-4H-pyrazolo[4,3-c]pyridine-5-carbonyl]indol-1-yl]cyclopropyl]-4H-1,2,4-oxadiazol-5-one] | > 10000 nM |
| Cc1cc(-n2nc3c(c2-n2ccn(-c4ccc5c(cnn5C)c4F)c2=O)[C@@H]2COC[C@H](C3)N2C(=O)c2cc3cc(C4CCOC5(CC5)C4)ccc3n2[C@@]2(c3noc(=O)[nH]3)C[C@@H]2C)cc(C)c1F (stereo partly drawn) [Compound 220, 3-((1S,2S)-1-(2-((4R,8S)-3-(3-(4-fluoro-1-methyl-1H-indazol-5-yl)-2-oxo-2,3-dihydro-1H-imidazol-1-yl)-2-(4-fluoro-3,5-dimethylphenyl)-2,4,5,7,8,9-hexahydro-4,8-epiminooxocino [5,4-c]pyrazole-10-carbonyl)-5-(4-oxaspiro[2.5]octan-7-yl)-1H-indol-1-yl)-2-methylcyclopropyl)-1,2,4-oxadiazol-5 (4H)-one] | 795 nM |
| Cc1cc(-n2nc3c(c2-n2ccn(-c4ccc5c(cnn5C)c4F)c2=O)CN(C(=O)c2cc4cc([C@H]5CCOC(C)(C)C5)ccc4n2[C@@]2(c4noc(=O)[nH]4)C[C@@H]2C)[C@@H](C)CC3)cc(C)c1F [Compound 601, 3-[(1S,2S)-1-[5-[(4S)-2,2-dimethyltetrahydropyran-4-yl]-2-[(6S)-2-(4-fluoro-3,5-dimethyl-phenyl)-3-[3-(4-fluoro-1-methyl-indazol-5-yl)-2-oxo-imidazol-1-yl]-6-methyl-4,6,7,8-tetrahydropyrazolo[4,3-c]azepine-5-carbonyl]indol-1-yl]-2-methyl-cyclopropyl]-4H-1,2,4-oxadiazol-5-one] | ≥ 10000 nM |
| Cc1cc(-n2nc3c(c2N2CCN(c4ccc5c(cnn5C)c4F)C(=O)C2=O)[C@H](C)N(C(=O)c2cc4cc([C@H]5CCOC(C)(C)C5)ccc4n2[C@@]2(c4noc(=O)[nH]4)C[C@@H]2C)CC3)cc(C)c1F [Compound 28, 1-((S)-5-(5-((S)-2,2-dimethyltetrahydro-2H-pyran-4-yl)-1-((1S,2S)-2-methyl-1-(5-oxo-4,5-dihydro-1,2,4-oxadiazol-3-yl)cyclopropyl)-1H-indole-2-carbonyl)-2-(4-fluoro-3,5-dimethylphenyl)-4-methyl-4,5,6,7-tetrahydro-2H-pyrazolo[4,3-c]pyridin-3-yl)-4-(4-fluoro-1-methyl-1H-indazol-5-yl) piperazine-2,3-dione] | > 10000 nM |
| Cc1cc(-n2nc3c(c2-n2ccn(-c4ccc5c(cnn5C)c4F)c2=O)[C@H](C)N(C(=O)c2cc4cc(C5CCOCC5)ccc4n2[C@@]2(c4noc(=O)[nH]4)C[C@@H]2C)CCC3)cc(C)c1F [Compound 607, 3-((1S,2S)-1-(2-((S)-3-(3-(4-fluoro-1-methyl-1H-indazol-5-yl)-2-oxo-2,3-dihydro-1H-imidazol-1-yl)-2-(4-fluoro-3,5-dimethylphenyl)-4-methyl-2,4,5,6,7,8-hexahydropyrazolo[4,3-c]azepine-5-carbonyl)-5-(tetrahydro-2H-pyran-4-yl)-1H-indol-1-yl)-2-methylcyclopropyl)-1,2,4-oxadiazol-5 (4H)-one] | 53.7 nM |
| Cc1cc(-n2nc3c(c2-n2ccn(-c4ccc5c(cnn5C)c4F)c2=O)[C@@H]2CC[C@H](C3)N2C(=O)c2cc3cc([C@H]4CCOC(C)(C)C4)ccc3n2[C@@]2(c3nnn[nH]3)C[C@@H]2C)cc(C)c1F [Compound 128, 1-((4S,7R)-9-(5-((S)-2,2-dimethyltetrahydro-2H-pyran-4-yl)-1-((1S,2S)-2-methyl-1-(1H-tetrazol-5-yl)cyclopropyl)-1H-indole-2-carbonyl)-2-(4-fluoro-3,5-dimethylphenyl)-2,4,5,6,7,8-hexahydro-4,7-epiminocyclohepta [c]pyrazol-3-yl)-3-(4-fluoro-1-methyl-1H-indazol-5-yl)-1H-imidazol-2 (3H)-one] | 137 nM |
| Cc1cc(-n2nc3c(c2-n2ccn(-c4ccc5c(cnn5C)c4F)c2=O)[C@@H]2CC[C@H](C3)N2C(=O)c2cc3cc(C4CCOC5(CCC5)C4)ccc3n2[C@@]2(c3noc(=O)[nH]3)C[C@@H]2C)cc(C)c1F (stereo partly drawn) [Compound 415, 3-((1S,2S)-1-(2-((4S,7R)-3-(3-(4-fluoro-1-methyl-1H-indazol-5-yl)-2-oxo-2,3-dihydro-1H-imidazol-1-yl)-2-(4-fluoro-3,5-dimethylphenyl)-2,4,5,6,7,8-hexahydro-4,7-epiminocyclohepta [c]pyrazole-9-carbonyl)-5-(5-oxaspiro[3.5]nonan-8-yl)-1H-indol-1-yl)-2-methylcyclopropyl)-1,2,4-oxadiazol-5 (4H)-one] | 361 nM |
| Cc1cc(-n2nc3c(c2-n2ccn(-c4ccc5c(cnn5C)c4F)c2=O)[C@@H]2CC[C@H](C3)N2C(=O)c2cc3cc([C@H]4CCOC5(CC5)C4)ccc3n2[C@]2(c3noc(=O)[nH]3)C[C@H]2C)cc(C)c1F [Compound 519, 3-[(1R,2R)-1-[2-[(1S,8R)-4-(4-fluoro-3,5-dimethyl-phenyl)-3-[3-(4-fluoro-1-methyl-indazol-5-yl)-2-oxo-imidazol-1-yl]-4,5,11-triazatricyclo[6.2.1.02,6]undeca-2,5-diene-11-carbonyl]-5-[(7S)-4-oxaspiro[2.5]octan-7-yl]indol-1-yl]-2-methyl-cyclopropyl]-4H-1,2,4-oxadiazol-5-one] | ≥ 10000 nM |
| Cc1cc(-n2nc3c(c2-n2ccn(-c4ccc5c(cnn5C)c4F)c2=O)C2COCC(C3)N2C(=O)c2cc3cc([C@H]4CCOC(C)(C)C4)ccc3n2[C@@]2(c3noc(=O)[nH]3)C[C@@H]2C)cc(C)c1F (stereo partly drawn) [Compound 116, 3-((1S,2S)-1-(5-((S)-2,2-dimethyltetrahydro-2H-pyran-4-yl)-2-(3-(3-(4-fluoro-1-methyl-1H-indazol-5-yl)-2-oxo-2,3-dihydro-1H-imidazol-1-yl)-2-(4-fluoro-3,5-dimethylphenyl)-2,4,5,7,8,9-hexahydro-4,8-epiminooxocino [5,4-c]pyrazole-10-carbonyl)-1H-indol-1-yl)-2-methylcyclopropyl)-1,2,4-oxadiazol-5(4H)-one] | 174 nM |
